Data taken from ChEMBL document CHEMBL1201862, “PubChem BioAssay data set” (2004).
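The compound was tested at five concentrations on cells cultured in 96-well plates, with a 48-hour exposure period. Here, GI50 denotes the concentration required for 50% inhibition of growth.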 Calls of active or inactive are those of the source. Rule as the data show it: active = GI50 up to about 1.1 µM and inactive = higher.

Columns and labels:
Assay in all cases: NCI anticancer screen, dose series, 48 h
RPMI-8226 = system: RPMI-8226
UACC-257 = system: UACC-257
SK-MEL-28 = system: SK-MEL-28
CAKI-1 = system: CAKI-1
SN12C = system: SN12C
NCI-H460 = system: NCI-H460
OVCAR-8 = system: OVCAR-8
UO-31 = system: UO-31
M14 = system: M14
NCI/ADR-RES = system: NCI/ADR-RES
HT-29 = system: HT-29
IGROV-1 = system: IGROV-1
OVCAR-5 = system: OVCAR-5
MDA-N = system: MDA-N
MDA-MB-231 = system: MDA-MB-231
TK-10 = system: TK-10
SF-268 = system: SF-268
HCC 2998 = system: HCC 2998
SR = system: SR
SK-OV-3 = system: SK-OV-3

Measured: GI50

COC(=O)C(CCC1CC(OC)N(C(=O)OCc2ccccc2)C1)/N=C/c1ccccc1 (configuration not stated)
inactive: RPMI-8226 27.6 µM | UACC-257 31.2 µM | SK-MEL-28 > 100 µM | CAKI-1 > 100 µM | SN12C > 100 µM | NCI-H460 78.3 µM | OVCAR-8 96.2 µM | UO-31 91.6 µM | M14 54.7 µM | NCI/ADR-RES > 100 µM | HT-29 60.5 µM | IGROV-1 87.9 µM | OVCAR-5 > 100 µM | MDA-N 48 µM | MDA-MB-231 47 µM | TK-10 98.6 µM | SF-268 > 100 µM | HCC 2998 31.6 µM | SR 30.5 µM | SK-OV-3 > 100 µM

CC(C)(C)[C@H]1CCC2(OCCO2)[C@](O)(CCCO)C1
inactive: RPMI-8226 > 100 µM | UACC-257 > 100 µM | SK-MEL-28 > 100 µM | CAKI-1 > 100 µM | SN12C > 100 µM | NCI-H460 > 100 µM | OVCAR-8 > 100 µM | UO-31 > 100 µM | M14 > 100 µM | NCI/ADR-RES > 100 µM | HT-29 > 100 µM | IGROV-1 > 100 µM | OVCAR-5 > 100 µM | MDA-N > 100 µM | MDA-MB-231 > 100 µM | TK-10 > 100 µM | SF-268 > 100 µM | HCC 2998 > 100 µM | SR > 100 µM | SK-OV-3 > 100 µM

COc1cc2c(cc1OC)-c1cc3ccc(OC)c(OC)c3c[n+]1CC2 [PALMATINE CHLORIDE]
inactive: RPMI-8226 > 100 µM | UACC-257 48.5 µM | SK-MEL-28 > 100 µM | CAKI-1 > 100 µM | SN12C > 100 µM | NCI-H460 > 100 µM | OVCAR-8 > 100 µM | UO-31 > 100 µM | M14 > 100 µM | NCI/ADR-RES > 100 µM | HT-29 > 100 µM | IGROV-1 > 100 µM | OVCAR-5 > 100 µM | MDA-N > 100 µM | MDA-MB-231 > 100 µM | TK-10 > 100 µM | SF-268 82.4 µM | HCC 2998 > 100 µM | SR > 100 µM | SK-OV-3 > 100 µM

CCOC(=O)/C=C/[C@H](O[Si](CC)(CC)CC)C(C)(C)C
inactive: RPMI-8226 20.6 µM | UACC-257 31 µM | CAKI-1 > 100 µM | SN12C 39 µM | NCI-H460 > 100 µM | OVCAR-8 > 100 µM | UO-31 > 100 µM | NCI/ADR-RES > 100 µM | HT-29 34.1 µM | IGROV-1 > 100 µM | OVCAR-5 89.9 µM | MDA-N 78.2 µM | MDA-MB-231 80.4 µM | TK-10 > 100 µM | SF-268 > 100 µM | HCC 2998 57.3 µM | SR 22.7 µM | SK-OV-3 > 100 µM

CC(=O)OC[C@@H](OC(C)=O)[C@@H](OC(C)=O)[C@H]1OC[C@@H]2C[C@H]([C@H]1OC(C)=O)N(Cc1ccccc1)O2
inactive: RPMI-8226 > 100 µM | UACC-257 > 100 µM | SK-MEL-28 > 100 µM | CAKI-1 > 100 µM | SN12C > 100 µM | NCI-H460 > 100 µM | UO-31 61.7 µM | M14 > 100 µM | NCI/ADR-RES > 100 µM | HT-29 > 100 µM | IGROV-1 > 100 µM | OVCAR-5 > 100 µM | MDA-N > 100 µM | MDA-MB-231 > 100 µM | TK-10 > 100 µM | SF-268 > 100 µM | HCC 2998 > 100 µM | SR > 100 µM | SK-OV-3 93.8 µM

CCNc1nc2c(ncn2C2CC(O)C(COP(=O)(O)O)O2)c(=O)[nH]1 (configuration not stated)
inactive: RPMI-8226 > 100 µM | UACC-257 > 100 µM | SK-MEL-28 > 100 µM | CAKI-1 > 100 µM | SN12C > 100 µM | NCI-H460 > 100 µM | OVCAR-8 > 100 µM | M14 > 100 µM | NCI/ADR-RES > 100 µM | HT-29 > 100 µM | IGROV-1 > 100 µM | OVCAR-5 > 100 µM | MDA-N > 100 µM | MDA-MB-231 > 100 µM | TK-10 > 100 µM | SF-268 > 100 µM | HCC 2998 > 100 µM | SR 86.3 µM | SK-OV-3 > 100 µM

COCc1cc2c(s1)C(=O)C1=C(C2=O)C2(C=C(Br)C(=O)C(Br)=C2)CCN1
inactive: RPMI-8226 3.25 µM | UACC-257 1.55 µM | SK-MEL-28 7.67 µM | CAKI-1 20 µM | SN12C 8.15 µM | NCI-H460 3.58 µM | OVCAR-8 4.15 µM | UO-31 12.8 µM | M14 1.68 µM | NCI/ADR-RES 3.52 µM | HT-29 3.09 µM | IGROV-1 7.24 µM | OVCAR-5 15.5 µM | MDA-N 1.73 µM | MDA-MB-231 3.04 µM | TK-10 18.2 µM | SF-268 4.86 µM | HCC 2998 11.1 µM | SR 1.49 µM | SK-OV-3 17 µM

CCOC(=O)C12CC(C)=C(C)CC1CCCc1ccccc12 (configuration not stated)
inactive: RPMI-8226 12.5 µM | UACC-257 17.6 µM | SK-MEL-28 30.8 µM | CAKI-1 31.1 µM | SN12C 23.4 µM | NCI-H460 16.4 µM | OVCAR-8 28.9 µM | UO-31 47 µM | M14 30.3 µM | NCI/ADR-RES 39.4 µM | HT-29 16.9 µM | IGROV-1 26.4 µM | OVCAR-5 21.4 µM | MDA-N 26 µM | MDA-MB-231 14.2 µM | TK-10 27 µM | SF-268 38.9 µM | HCC 2998 14.2 µM | SR 23.8 µM | SK-OV-3 32 µM

COc1ccc2nc3c([N+](=O)[O-])ccc4c3c(c2c1)N(CCCN(C)C)C(=S)N4CCCN(C)C
inactive: RPMI-8226 5.51 µM | UACC-257 6.12 µM | SK-MEL-28 18.1 µM | CAKI-1 14.5 µM | SN12C 5.11 µM | NCI-H460 2.7 µM | OVCAR-8 5.79 µM | UO-31 7.85 µM | M14 4 µM | NCI/ADR-RES 6.62 µM | HT-29 2.22 µM | IGROV-1 2.97 µM | OVCAR-5 14.6 µM | MDA-N 8.13 µM | MDA-MB-231 7.28 µM | TK-10 7.4 µM | SF-268 4.46 µM | HCC 2998 2.9 µM | SR 1.72 µM | SK-OV-3 12.6 µM

N#Cc1nc(COCc2ccccc2)oc1N
inactive: RPMI-8226 74.8 µM | UACC-257 > 100 µM | SK-MEL-28 > 100 µM | CAKI-1 > 100 µM | SN12C > 100 µM | OVCAR-8 > 100 µM | UO-31 > 100 µM | M14 > 100 µM | NCI/ADR-RES > 100 µM | HT-29 > 100 µM | IGROV-1 > 100 µM | OVCAR-5 > 100 µM | MDA-N > 100 µM | MDA-MB-231 > 100 µM | TK-10 > 100 µM | SF-268 > 100 µM | HCC 2998 > 100 µM | SR > 100 µM | SK-OV-3 > 100 µM

N=C(N)C1CN(CCCCCCCCCCN2CC(C(=N)N)C(O)=NC2=O)C(=O)N=C1O (configuration not stated)
inactive: RPMI-8226 > 10 µM | UACC-257 > 10 µM | CAKI-1 > 10 µM | SN12C > 10 µM | NCI-H460 > 10 µM | OVCAR-8 > 10 µM | M14 > 10 µM | NCI/ADR-RES > 10 µM | HT-29 > 10 µM | IGROV-1 > 10 µM | OVCAR-5 > 10 µM | MDA-N > 10 µM | MDA-MB-231 > 10 µM | TK-10 > 10 µM | HCC 2998 > 10 µM | SR > 10 µM | SK-OV-3 > 10 µM

COc1cc(-c2c[nH]c3ccccc23)nc(-c2c[nH]c3ccccc23)n1
inactive: RPMI-8226 2.8 µM | UACC-257 8.91 µM | CAKI-1 5.89 µM | NCI-H460 3.08 µM | OVCAR-8 4.97 µM | UO-31 5.53 µM | M14 4.07 µM | NCI/ADR-RES 8.87 µM | HT-29 3.63 µM | IGROV-1 1.85 µM | OVCAR-5 8.13 µM | MDA-N 4.05 µM | MDA-MB-231 2.49 µM | TK-10 7.98 µM | SF-268 14.7 µM | HCC 2998 4.22 µM | SR 9.53 µM | SK-OV-3 10.9 µM

COc1ccc(/C=C2\Oc3cc(OC(C)=O)ccc3C2=O)cc1
inactive: RPMI-8226 57.3 µM | UACC-257 > 100 µM | SK-MEL-28 > 100 µM | CAKI-1 21.1 µM | SN12C > 100 µM | NCI-H460 > 100 µM | OVCAR-8 > 100 µM | UO-31 > 100 µM | M14 > 100 µM | NCI/ADR-RES > 100 µM | IGROV-1 > 100 µM | MDA-N 76.2 µM | MDA-MB-231 > 100 µM | TK-10 > 100 µM | SF-268 > 100 µM | HCC 2998 > 100 µM | SR 60.8 µM | SK-OV-3 > 100 µM

COC(=O)[C@@H]1OC(C)(c2ccccc2)O[C@H]1C(=O)OC
inactive: RPMI-8226 > 100 µM | UACC-257 > 100 µM | SK-MEL-28 > 100 µM | CAKI-1 > 100 µM | NCI-H460 > 100 µM | OVCAR-8 > 100 µM | UO-31 > 100 µM | M14 > 100 µM | NCI/ADR-RES > 100 µM | HT-29 > 100 µM | IGROV-1 > 100 µM | OVCAR-5 > 100 µM | MDA-N > 100 µM | MDA-MB-231 > 100 µM | TK-10 > 100 µM | SF-268 > 100 µM | HCC 2998 76.4 µM | SR > 100 µM | SK-OV-3 > 100 µM
